Measured values taken from patent US11566007B2, “Ras inhibitors” (Revolution Medicines, Inc., priority 2019, dated 2023).
Read-outs that look alike come from different tables or passages of the source.

What was measured:
Format in all cases: biochemical
NRAS WT = NRAS WT (Homo sapiens (Human), UniProt P01111+P62937); test: Ras-Raf (BRAF RBD) disruption / FRET / MOA assay, NRAS WT; settings: read-out: IC50* NRAS WT FRET data
In short: (§1)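 Compounds (30 μM top final, 10-point 3-fold dilutions) incubated 3 h at 25° C with nucleotide-loaded Ras, cyclophilin A and BRAF RBD. Detection with 10 nM anti-His Eu-W1024 and 50 nM anti-GST allophycocyanin over another 1.5 h. Lowered TR-FRET ratio relative to DMSO wells gives IC50.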

K-Ras G12C = K-Ras G12C (Homo sapiens (Human), UniProt P01116+P62937, G12C); test: Ras-Raf (BRAF RBD) disruption / FRET / MOA assay, KRAS G12C; settings: KRAS G12C, Ras-Raf disruption/FRET/MOA assay
Sequence of K-Ras G12C (P01116-2 other isoform, or with tags, fused parts or gaps G12C): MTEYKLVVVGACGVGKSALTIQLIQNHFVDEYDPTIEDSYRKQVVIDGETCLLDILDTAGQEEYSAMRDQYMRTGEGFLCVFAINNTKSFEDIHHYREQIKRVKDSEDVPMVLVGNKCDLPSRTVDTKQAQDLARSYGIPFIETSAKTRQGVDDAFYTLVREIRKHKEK
Sequence of K-Ras G12C (P62937 whole entry): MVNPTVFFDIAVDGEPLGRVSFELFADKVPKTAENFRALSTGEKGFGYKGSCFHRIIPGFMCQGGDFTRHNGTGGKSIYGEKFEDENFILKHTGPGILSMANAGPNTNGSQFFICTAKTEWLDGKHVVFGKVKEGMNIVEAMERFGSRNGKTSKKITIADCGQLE
In short: (§2)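 A 10-point, 3-fold dilution series topping at 30 μM final was incubated 3 h at 25° C with the Ras/cyclophilin A/BRAF RBD mixture.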

KRAS WT = KRAS WT (Homo sapiens (Human), UniProt P01116+P62937); test: Ras-Raf (BRAF RBD) disruption / FRET / MOA assay, KRAS WT; settings: read-out: IC50* KRAS WT FRET data
Sequence of KRAS WT (P01116-2 other isoform, or with tags, fused parts or gaps): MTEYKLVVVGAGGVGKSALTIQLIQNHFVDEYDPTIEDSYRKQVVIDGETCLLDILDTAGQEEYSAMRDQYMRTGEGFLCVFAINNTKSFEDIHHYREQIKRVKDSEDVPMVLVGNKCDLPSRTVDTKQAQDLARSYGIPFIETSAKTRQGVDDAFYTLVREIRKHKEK
Sequence of KRAS WT (P62937 whole entry): as the sequence (P62937 whole entry) above
In short: as §2

KRAS G13D = KRAS G13D (Homo sapiens (Human), UniProt P01116+P62937, G13D); test: Ras-Raf (BRAF RBD) disruption / FRET / MOA assay, KRAS G13D
Sequence of KRAS G13D (P01116-2 other isoform, or with tags, fused parts or gaps G13D): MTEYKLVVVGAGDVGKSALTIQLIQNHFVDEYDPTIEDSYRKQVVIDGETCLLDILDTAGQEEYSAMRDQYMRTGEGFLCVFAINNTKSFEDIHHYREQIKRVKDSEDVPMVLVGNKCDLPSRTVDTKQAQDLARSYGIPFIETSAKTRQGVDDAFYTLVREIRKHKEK
Sequence of KRAS G13D (P62937 whole entry): as the sequence (P62937 whole entry) above
In short: as §2

NRAS Q61R = NRAS Q61R (Homo sapiens (Human), UniProt P01111+P62937, Q61R); test: Ras-Raf (BRAF RBD) disruption / FRET / MOA assay, NRAS Q61R; settings: NRAS Q61R; Ras-Raf disruption/FRET/MOA assay; read-out: IC50* NRAS Q61R FRET data
Sequence of NRAS Q61R (P01111 whole entry Q61R): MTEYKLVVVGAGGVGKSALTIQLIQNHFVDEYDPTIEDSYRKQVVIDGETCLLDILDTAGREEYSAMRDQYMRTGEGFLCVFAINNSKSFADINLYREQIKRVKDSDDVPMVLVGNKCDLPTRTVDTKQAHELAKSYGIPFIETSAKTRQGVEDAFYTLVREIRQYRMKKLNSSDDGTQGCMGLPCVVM
Sequence of NRAS Q61R (P62937 whole entry): as the sequence (P62937 whole entry) above
In short: as §1

K-Ras G13C = K-Ras G13C (Homo sapiens (Human), UniProt P01116+P62937, G13C); test: Ras-Raf (BRAF RBD) disruption / FRET / MOA assay, KRAS G13C; settings: KRAS G13C; Ras-Raf disruption/FRET/MOA assay; read-out: IC50* KRAS G13C FRET data
Sequence of K-Ras G13C (P01116-2 other isoform, or with tags, fused parts or gaps G13C): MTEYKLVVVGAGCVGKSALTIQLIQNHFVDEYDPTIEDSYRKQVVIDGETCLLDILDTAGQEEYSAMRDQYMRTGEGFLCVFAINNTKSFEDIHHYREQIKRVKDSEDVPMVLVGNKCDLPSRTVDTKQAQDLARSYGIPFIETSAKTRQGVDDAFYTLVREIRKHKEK
Sequence of K-Ras G13C (P62937 whole entry): as the sequence (P62937 whole entry) above
In short: as §2

NRAS G12C = NRAS G12C (Homo sapiens (Human), UniProt P01111+P62937, G12C); test: Ras-Raf (BRAF RBD) disruption / FRET / MOA assay, NRAS G12C
Sequence of NRAS G12C (P01111 whole entry G12C): as the sequence (P01111 whole entry Q61R) above, with G12C, R61Q counted along it
Sequence of NRAS G12C (P62937 whole entry): as the sequence (P62937 whole entry) above
In short: as §2

[1] = read-out: IC50* KRAS G12C FRET data
[2] = read-out: IC50* KRAS G13D FRET data
[3] = read-out: IC50* NRAS G12C FRET data

Sequence of NRAS WT (P01111 whole entry): as the sequence (P01111 whole entry Q61R) above, with R61Q counted along it
Sequence of NRAS WT (P62937 whole entry): as the sequence (P62937 whole entry) above

| SMILES | IC50 (NRAS WT) [µM] | IC50 (K-Ras G12C; [1]) [µM] | IC50 (KRAS WT) [µM] | IC50 (KRAS G13D; [2]) [µM] | IC50 (NRAS Q61R) [µM] | IC50 (K-Ras G13C) [µM] | IC50 (NRAS G12C; [3]) [µM] | IC50 (K-Ras G12C; IC50* KRAS G12C FRET data) [µM] | IC50 (KRAS G13D; IC50* KRAS G13D FRET data) [µM] | IC50 (NRAS G12C; IC50* NRAS G12C FRET data) [µM] |
| --- | --- | --- | --- | --- | --- | --- | --- | --- | --- | --- |
| C=CC(=O)N1CCC(F)(C(=O)N(C)[C@H](C(=O)N[C@H]2C[C@H]3CN(CCO3)c3ccc4c(c3)c(c(-c3cccnc3[C@H](C)OC)n4CC)CC(C)(C)COC(=O)[C@@H]3CCCN(N3)C2=O)C(C)C)CC1 (atropisomer, axis not shown) [Example A722, 1-acryloyl-N-((2S)-1-(((6^3S,4S)-1^1-ethyl-1^2-(2-((S)-1-methoxyethyl)pyridin-3-yl)-10,10-dimethyl-5,7-dioxo-6^1,6^2,6^3,6^4,6^5,6^6-hexahydro-1^1H-8-oxa-2(4,2)-morpholina-1(5,3)-indola-6(1,3)-pyridazinacycloundecaphane-4-yl)amino)-3-methyl-1-oxobutan-2-yl)-4-fluoro-N-methylpiperidine-4-carboxamide] | 0.1 to 1 | 0.01 to 0.1 | 0.1 to 1 | 1 to 10 | 1 to 10 | 0.1 to 1 | 0.01 to 0.1 |  |  |  |
| C=CC(=O)N1CC[C@@]2(C1)OCN([C@H](C(=O)N[C@H]1Cc3cccc(c3)-c3ccc4c(c3)c(c(-c3cccnc3[C@H](C)OC)n4CC)CC(C)(C)COC(=O)[C@@H]3CCCN(N3)C1=O)C(C)C)C2=O (atropisomer, axis not shown) [Example A358] | 0.1 to 1 | 0.1 to 1 | 0.1 to 1 | 1 to 10 | 1 to 10 | 0.1 to 1 | 0.1 to 1 |  |  |  |
| CCn1c(-c2cccnc2[C@H](C)OC)c2c3cc(ccc31)C1CCCN(C1)C[C@H](NC(=O)[C@@H](COC1CN(C(=O)C#CC(C)(C)N(C)C)C1)C(C)C)C(=O)N1CCC[C@H](N1)C(=O)OCC(C)(C)C2 [Example A646, (2R)-2-(((1-(4-(dimethylamino)-4-methylpent-2-ynoyl)azetidin-3-yl)oxy)methyl)-N-((6^3S,4S)-1^1-ethyl-1^2-(2-((S)-1-methoxyethyl)pyridin-3-yl)-10,10-dimethyl-5,7-dioxo-6^1,6^2,6^3,6^4,6^5,6^6-hexahydro-1^1H-8-oxa-1(5,3)-indola-6(1,3)-pyridazina-2(3,1)-piperidinacycloundecaphane-4-yl)-3-methylbutanamide] | > 10 | 0.01 to 0.1 | > 10 | > 10 | > 10 | > 10 | 0.01 to 0.1 |  |  |  |
| C=CC(=O)N1CC[C@H](C(=O)N(C)[C@H](C(=O)N[C@H]2Cc3cccc(c3)-c3ccc4c(c3)c(c(-c3cccnc3[C@H](C)OC)n4CC)CC(C)(C)COC(=O)[C@@H]3CCCN(N3)C2=O)C(C)C(F)(F)F)C1 (stereo partly shown) [Example A641] | 1 to 10 | 0.1 to 1 | 1 to 10 | 1 to 10 | 1 to 10 | 1 to 10 | 0.1 to 1 |  |  |  |
| C=CC(=O)N1CC[C@H](C(=O)N(C)[C@H](C(=O)N[C@H]2Cc3cc(O)cc(c3)-c3ccc4c(c3)c(c(-c3cncs3)n4CC)CC(C)(C)COC(=O)[C@@H]3CCCN(N3)C2=O)C(C)C)C1 [Example A143] | > 10 | 0.1 to 1 | > 10 | > 10 | > 10 | > 10 | 0.1 to 1 |  |  |  |
| C=CC(=O)N1CCN(C(=O)N(C)[C@H](C(=O)N[C@H]2Cc3nc(cs3)-c3ccc4c(c3)c(c(-c3cccnc3[C@H](C)OC)n4CC)CC(C)(C)COC(=O)[C@@H]3CCCN(N3)C2=O)C(C)C)[C@H]2C[C@H]21 (atropisomer, axis not shown) [Example A737] | 0.01 to 0.1 | 0.01 to 0.1 | 0.01 to 0.1 | 0.1 to 1 | 0.01 to 0.1 | 0.01 to 0.1 | 0.01 to 0.1 |  |  |  |
| C=CC(=O)N1CC[C@H](C(=O)N(C)[C@H](C(=O)N[C@H]2Cc3cccc(c3)-c3ccc4c(c3)c(c(-c3cc(C5CN(C)C5)cnc3[C@H](C)OC)n4CC)CC(C)(C)COC(=O)[C@@H]3CCCN(N3)C2=O)C(C)C)C1 (atropisomer, axis not shown) [Example A392] | 1 to 10 | 0.1 to 1 | 1 to 10 | > 10 | 1 to 10 | 1 to 10 | 0.1 to 1 |  |  |  |
| CO[C@@H](C)c1ncccc1-c1c2c3cc(ccc3n1CC(F)(F)F)-c1cc(cc(C(F)F)c1)C[C@H](NC(=O)[C@@H](COC1CN(C(=O)C#CC(C)(C)N(C)C)C1)C(C)C)C(=O)N1CCC[C@H](N1)C(=O)OCC(C)(C)C2 (atropisomer, axis not shown) [Example A374] | > 10 | 0.1 to 1 | > 10 | > 10 | > 10 | > 10 | 0.1 to 1 |  |  |  |
| C=CC(=O)N(C)C[C@@H]1CCN1C(=O)N(C)[C@H](C(=O)N[C@H]1Cc2nc(cs2)-c2ccc3c(c2)c(c(-c2cccnc2[C@H](C)OC)n3CC)CC(C)(C)COC(=O)[C@@H]2CCCN(N2)C1=O)C(C)C (atropisomer, axis not shown) [Example A390] | 1 to 10 | 0.1 to 1 | 1 to 10 | 1 to 10 | 1 to 10 | 0.1 to 1 | 0.1 to 1 |  |  |  |
| CCn1c(-c2cccnc2[C@H](C)OC)c2c3cc(ccc31)N1CCO[C@@H](C[C@H](NC(=O)[C@H](C(C)C)N(C)C(=O)C3(F)CCN(C(=O)/C=C/CN(C)C)CC3)C(=O)N3CCC[C@H](N3)C(=O)OCC(C)(C)C2)C1 (atropisomer, axis not shown) [Example A645] | 1 to 10 | 0.01 to 0.1 | 1 to 10 | 1 to 10 | > 10 | 0.1 to 1 | 0.01 to 0.1 |  |  |  |
| C=CC(=O)N(C)CCN1CCN(C(=O)N(C)[C@H](C(=O)N[C@H]2Cc3cccc(c3)-c3ccc4c(c3)c(c(-c3cccnc3[C@H](C)OC)n4CC)CC(C)(C)COC(=O)[C@@H]3CCCN(N3)C2=O)C(C)C)CC1 (atropisomer, axis not shown) [Example A539] | 0.1 to 1 | 0.1 to 1 | 0.1 to 1 | 1 to 10 | 0.1 to 1 | 0.01 to 0.1 | 0.1 to 1 |  |  |  |
| C=CC(=O)N1CCOC2(CCN(C(=O)N(C)[C@H](C(=O)N[C@H]3Cc4cc(C(F)F)cc(n4)-c4ccc5c(c4)c(c(-c4cccnc4[C@H](C)OC)n5CC(F)(F)F)CC(C)(C)COC(=O)[C@@H]4CCCN(N4)C3=O)C(C)C)CC2)C1 (atropisomer, axis not shown) [Example A541] | 0.1 to 1 | 0.1 to 1 | 0.1 to 1 | 1 to 10 | 0.1 to 1 | 0.01 to 0.1 | 0.1 to 1 |  |  |  |
| C=CC(=O)N1CC[C@H](C(=O)N(C)[C@H](C(=O)N[C@H]2Cc3cc(O)cc(c3)-c3ccc4c(c3)c(c(-c3cnc(N(C)C)s3)n4CC)CC(C)(C)COC(=O)[C@@H]3CCCN(N3)C2=O)C(C)C)C1 [Example A302] | > 10 | 0.1 to 1 | 1 to 10 | 1 to 10 | > 10 | 0.1 to 1 | 0.1 to 1 |  |  |  |
| C=CC(=O)N1CC[C@H](C(=O)N(C)[C@H](C(=O)N[C@H]2Cc3cc(O)cc(c3)-c3ccc4c(c3)c(c(-c3ncn(C)c3[C@H](C)OC)n4CC)CC(C)(C)COC(=O)[C@@H]3CCCN(N3)C2=O)C(C)C)C1 [Example A301] |  |  | > 10 |  | > 10 | 1 to 10 |  | 0.1 to 1 | > 10 | 0.1 to 1 |
